Source: ChEMBL document CHEMBL4814063, “Discovery of Diaminopyrimidine Carboxamide HPK1 Inhibitors as Preclinical Immunotherapy Tool Compounds” (ACS Med Chem Lett, 2021)
Converted amounts (≈) assume the structure as drawn.

Tests used:
[1] = AUC in C57BL/6 mouse at 100 mg/kg, po measured after 8 hrs; assay type: ADME, organism-based; parameters: route oral, dose 100 mg/kg, time 8 hrs; details: in vivo
[2] = Oral bioavailability in C57BL/6 mouse at 10 mg/kg; assay type: ADME, organism-based; details: in vivo
[3] = Apparent permeability in dog MDCK-II cells; assay type: ADME, cell-based, Canis lupus familiaris
[4] = MRT in Wistar Han rat at 0.1 mg/kg, iv; assay type: ADME, organism-based; details: in vivo
[5] = Unbound clearance in Wistar Han rat at 0.1 mg/kg, iv; assay type: ADME, organism-based; details: in vivo
[6] = Clearance in C57BL/6 mouse at 10 mg/kg, po or 1 mg/kg, iv; assay type: ADME, organism-based; details: in vivo
[7] = Volume of distribution in Wistar Han rat at 0.1 mg/kg, iv; assay type: ADME, organism-based; details: in vivo
[8] = Fraction unbound clearance in C57BL/6 mouse at 10 mg/kg, po or 1 mg/kg, iv; assay type: ADME, organism-based; details: in vivo
[9] = Clearance in Wistar Han rat at 0.1 mg/kg, iv; assay type: ADME, organism-based; details: in vivo
[10] = MRT in C57BL/6 mouse at 10 mg/kg, po or 1 mg/kg, iv; assay type: ADME, organism-based; details: in vivo
[11] = Volume of distribution in C57BL/6 mouse at 10 mg/kg, po or 1 mg/kg, iv; assay type: ADME, organism-based; details: in vivo
[12] = Solubility of compound at pH 7; assay type: physicochemical; details: buffer
[13] = Solubility of compound at pH 2; assay type: physicochemical; details: buffer
[14] = Metabolic stability in rat hepatocytes assessed as intrinsic clearance; assay type: ADME, cell-based, Hepatocyte
Dendritic cell [15] = experiment: […] in human monocyte derived dendritic cell assessed as increase in TNF-alpha production incubated for 24 hrs by ELISA; assay type: functional, cell-based
Dendritic cell [16] = experiment: […] in human monocyte derived dendritic cell assessed as increase in IL-6 production incubated for 24 hrs by ELISA; assay type: functional, cell-based

Row | Compound | AUC [1] [µM·h] | bioavailability [2] [%] | Papp [3] [×10⁻⁶ cm/s] | MRT [4] [min] | CL free [5] [mL/min/kg] | clearance [6] [mL/min/kg] | Vd [7] [L/kg] | CL free [8] [mL/min/kg] | clearance [9] [mL/min/kg] | MRT [10] [min] | Vd [11] [L/kg] | solubility [12] [µM] | solubility [13] [µM] | CLint [14] [µL/min/1e6 cells] | Activity (Dendritic cell [15]) | Activity (Dendritic cell [16])
1 | COc1cc2c(cc1Nc1ncc(C(N)=O)c(Nc3ccccc3CO)n1)CN(C)CC2 | 102 | 7.9 | 0.54 | 120 | 548 | 67 | 65 | 792 | 88 | 39.6 | 29 |  |  |  |  | 
2 | COc1cc2c(cc1Nc1ncc(C(F)(F)F)c(Nc3ccccc3)n1)CN(C)CC2 |  |  |  |  |  |  |  |  |  |  |  | 96 (≈ 41.2 µg/mL) | 157 (≈ 67.4 µg/mL) |  |  | 
3 | COc1cc2c(cc1Nc1ncc(C(N)=O)c(Nc3ccccc3[C@H](C)OC)n1)CN(C)CC2 |  | 9 | 3.1 | 30 | 2057 | 52 | 1.8 | 2452 | 56 | 19.8 | 1 |  |  |  |  | 
4 | COc1cc2c(cc1Nc1ncc(C(N)=O)c(Nc3c(C)cccc3F)n1)CN(C)CC2 |  |  | 2.78 |  |  |  |  |  |  |  |  | 9 (≈ 3.93 µg/mL) |  | 69 |  | 
5 | COc1cc2c(cc1Nc1ncc(C(N)=O)c(Nc3ccccc3Br)n1)CN(C)CC2 |  |  | 2.12 |  |  |  |  |  |  |  |  | < 2 |  | 33 |  | 
6 | COc1cc2c(cc1Nc1ncc(C(N)=O)c(Nc3c(F)cccc3C(F)(F)F)n1)CN(C)CC2 |  | 13 | 2.9 | 78 | 1529 | 30 | 2 | 2170 | 28 | 28.8 | 61 |  |  |  | Dose-Dependent Effect | Dose-Dependent Effect
7 | COc1cc2c(cc1Nc1ncc(C(N)=O)c(Nc3ccccc3)n1)CN(C)CC2 |  | 17 | 2.5 | 126 | 415 | 46 |  | 2532 | 19 | 72 |  | 92 (≈ 37.2 µg/mL) | 166 (≈ 67.1 µg/mL) | 70 |  | 
8 | COc1cc2c(cc1Nc1nccc(Nc3ccccc3)n1)CN(C)CC2 |  |  |  |  |  |  |  |  |  |  |  | 147 (≈ 53.1 µg/mL) | 160 (≈ 57.8 µg/mL) |  |  | 
9 | COc1cc2c(cc1Nc1ncc(C)c(Nc3ccccc3)n1)CN(C)CC2 |  |  |  |  |  |  |  |  |  |  |  | 152 (≈ 57.1 µg/mL) | 179 (≈ 67.2 µg/mL) |  |  | 
10 | COc1cc2c(cc1Nc1ncc(C(N)=O)c(NC3CCCC3)n1)CN(C)CC2 |  |  | 3.6 |  |  |  |  |  |  |  |  | 7 (≈ 2.78 µg/mL) |  | 28 |  | 
